Measurements reported in ChEMBL document CHEMBL6109147, “Discovery of Potent STING Inhibitors Bearing a Difluorobenzodioxol Structural Motif as Potent Anti-Inflammatory Agents” (J Med Chem, 2025).
Activity calls are given as the source filed them. The rule behind the calls is not given here.

Columns and labels:
Mus musculus [1] = experiment: Anti-inflammatory activity against Cisplatin induced C57BL/6 STING-KO mouse kidney inflammation model assessed as prevention of Cisplatin induced interstitial vacuolation at 5 mg/kg, ip treated for 3 days; assay type: functional, organism-based; conditions: time 3.0 day
[2] = molecular target: Stimulator of interferon genes protein (Homo sapiens) (UniProt Q86WV6); experiment: Inhibition of STING downstream signalling in human THP1-Dual cells assessed as inhibition of cGAMP induced IP-10 mRNA expression at 0.3 to 3 uM pre-treated for 1 hr followed by stimulated with cGAMP measured after 4 hrs by real-time PCR analysis; assay type: cell-based; conditions: dose 0.3-3 µM, time 5.0 hrs
Chain of Stimulator of interferon genes protein (Homo sapiens) (Q86WV6 whole entry): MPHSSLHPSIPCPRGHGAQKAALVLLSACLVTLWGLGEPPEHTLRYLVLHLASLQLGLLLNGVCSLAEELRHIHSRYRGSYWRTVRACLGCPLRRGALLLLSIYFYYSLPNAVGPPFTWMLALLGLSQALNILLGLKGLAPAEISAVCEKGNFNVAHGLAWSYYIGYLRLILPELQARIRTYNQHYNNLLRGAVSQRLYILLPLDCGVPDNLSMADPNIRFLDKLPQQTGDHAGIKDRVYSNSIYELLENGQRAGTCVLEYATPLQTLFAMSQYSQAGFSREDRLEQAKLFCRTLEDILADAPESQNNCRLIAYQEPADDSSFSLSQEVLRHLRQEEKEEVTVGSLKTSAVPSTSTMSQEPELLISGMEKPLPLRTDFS

Mus musculus [3] = experiment: Anti-inflammatory activity in TREX1 D18N mouse model assessed as reduction in Isg15 mRNA expression in kidney at 10 mg/kg, ip measured after 2 weeks; assay type: functional, organism-based
[4] = AUC (0 to infinity) in Sprague-Dawley rat at 1 mg/kg, iv; assay type: ADME, organism-based; conditions: in vivo
[5] = Clearance in Sprague-Dawley rat at 1 mg/kg, iv; assay type: ADME, organism-based; conditions: in vivo
Mus musculus [6] = experiment: Toxicity in TREX1 D18N mouse model assessed as change in body weight at 10 mg/kg, ip measured after 2 weeks; assay type: organism-based; conditions: in vivo, 336 h
[7] = molecular target: T1, Stimulator of interferon genes protein (Mus musculus) (UniProt Q3TBT3); experiment: Inhibition of STING downstream signalling in mouse BMDM cells assessed as inhibition of MSA-2 induced TBK1 phosphorylation pre-treated for 1 hr followed by stimulated with MSA-2 measured after 4 hrs by Western blot analysis; assay type: cell-based; conditions: dose 0.3-3 µM, time 5.0 hrs
T1 sequence (whole entry): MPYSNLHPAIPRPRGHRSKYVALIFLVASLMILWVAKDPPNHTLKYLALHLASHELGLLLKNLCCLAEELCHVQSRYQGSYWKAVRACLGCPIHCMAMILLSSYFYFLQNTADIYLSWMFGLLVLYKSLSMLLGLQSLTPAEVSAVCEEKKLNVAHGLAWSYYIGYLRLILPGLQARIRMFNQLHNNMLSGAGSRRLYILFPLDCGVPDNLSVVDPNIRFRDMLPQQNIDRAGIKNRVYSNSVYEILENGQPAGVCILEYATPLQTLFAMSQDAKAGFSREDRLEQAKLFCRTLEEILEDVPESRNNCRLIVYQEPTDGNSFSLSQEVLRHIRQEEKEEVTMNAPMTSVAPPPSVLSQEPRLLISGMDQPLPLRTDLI

[8] = molecular target: T1, Stimulator of interferon genes protein (Mus musculus); experiment: Inhibition of STING downstream signalling in mouse BMDM cells assessed as inhibition of MSA-2 induced IRF3 phosphorylation pre-treated for 1 hr followed by stimulated with MSA-2 measured after 4 hrs by Western blot analysis; assay type: cell-based; conditions: dose 0.3-3 µM, time 5.0 hrs
Mus musculus [9] = experiment: Effect on Isg56 expression in Cisplatin induced C57BL/6 STING-KO mouse kidney inflammation model at 5 mg/kg, ip treated for 3 days by real-time PCR analysis; assay type: functional, organism-based; conditions: time 3.0 day
Mus musculus [10] = experiment: Anti-inflammatory activity in TREX1 D18N mouse model assessed as reduction in IL6 mRNA expression in heart at 10 mg/kg, ip measured after 2 weeks; assay type: functional, organism-based
Mus musculus [11] = experiment: Anti-inflammatory activity against Cisplatin induced C57BL/6 mouse kidney inflammation model assessed as suppression of Cisplatin induced Ifn-beta mRNA level in kidney at 5 mg/kg, ip treated for 3 days by real-time PCR analysis; assay type: functional, organism-based; conditions: time 3.0 day
Mus musculus [12] = experiment: Anti-inflammatory activity in TREX1 D18N mouse model assessed as reduction in Ccl5 mRNA expression in kidney at 10 mg/kg, ip measured after 2 weeks; assay type: functional, organism-based
[13] = molecular target: Stimulator of interferon genes protein (Homo sapiens) (UniProt Q86WV6); experiment: Binding affinity to Flag-tagged human STING expressed in HEK293T cells assessed as labelling at 0.5 to 4 uM pretreated for 15 mins measured after 1 hr in presence of 1 uM 1-(2,2-difluorobenzo[d][1,3]dioxol-5-yl)-3-(5-ethynyl-1H-indol-3-yl)urea by TAMRA-N3 fluorescent assay; assay type: cell-based; conditions: dose 0.5-4 µM, time 75.0 min
[14] = Metabolic stability in mouse liver microsomes assessed as microsomal intrinsic clearance; assay type: ADME, Microsome; conditions: read-out: CLH
[15] = molecular target: Stimulator of interferon genes protein (Homo sapiens) (UniProt Q86WV6); experiment: Inhibition of human wild type STING (R232) expressed in human 293-Dual hSTING-R232 cells assessed as inhibition of secreted luciferase reporter of interferon stimulated gene (ISG) measured after 24 hrs incubation; assay type: cell-based
[16] = molecular target: T1, Stimulator of interferon genes protein (Mus musculus); experiment: Inhibition of STING downstream signalling in mouse BMDM cells assessed as inhibition of MSA-2 induced Ccl5 mRNA level pre-treated for 1 hr followed by stimulated with MSA-2 measured after 4 hrs by real-time PCR analysis; assay type: cell-based; conditions: dose 0.3-3 µM, time 5.0 hrs
[17] = molecular target: Stimulator of interferon genes protein (Homo sapiens) (UniProt Q86WV6); experiment: Inhibition of STING downstream signalling in human THP1-Dual cells assessed as inhibition of cGAMP induced IP-10 secretion at 0.3 to 3 uM pre-treated for 1 hr followed by stimulated with cGAMP measured after 24 hrs by ELISA; assay type: cell-based; conditions: dose 0.3-3 µM, time 25.0 hrs
[18] = molecular target: T1, Stimulator of interferon genes protein (Mus musculus); experiment: Inhibition of STING downstream signalling in mouse RAW264.7 cells assessed as inhibition of […] induced Cxcl-10 mRNA level pre-treated for 1 hr followed by stimulated with […] measured after 4 hrs by real-time PCR analysis; assay type: cell-based; conditions: dose 0.3-3 µM, time 5.0 hrs
Mus musculus [19] = experiment: Anti-inflammatory activity in TREX1 D18N mouse model assessed as reduction in Isg15 mRNA expression in heart at 10 mg/kg, ip measured after 2 weeks; assay type: functional, organism-based
Mus musculus [20] = experiment: Prevention of body weight loss in Cisplatin induced C57BL/6 mouse kidney inflammation model at 5 mg/kg, ip treated for 3 days; assay type: functional, organism-based; conditions: time 3.0 day
[21] = molecular target: Stimulator of interferon genes protein (Homo sapiens) (UniProt Q86WV6); experiment: Inhibition of STING downstream signalling in human THP1-Dual cells assessed as inhibition of HT-DNA induced ISG56 mRNA expression at 0.3 to 3 uM pre-treated for 1 hr followed by stimulated with HT-DNA measured after 4 hrs by real-time PCR analysis; assay type: cell-based; conditions: dose 0.3-3 µM, time 5.0 hrs
Mus musculus [22] = experiment: Anti-inflammatory activity against MSA-2 induced C57BL/6 mouse inflammation model assessed as inhibition of MSA-2 induced Isg15 mRNA expression in kidney at 10 mg/kg, ip pre-treated for 1 hr followed by stimulated with MSA-2 for 4 hrs by real-time PCR analysis; assay type: functional, organism-based; conditions: time 5.0 hrs
[23] = molecular target: Stimulator of interferon genes protein (Homo sapiens) (UniProt Q86WV6); experiment: Inhibition of human wild type STING (R232) expressed in human THP-1 Dual cells assessed as reduction in cGAMP-induced IL-6 expression; assay type: cell-based; conditions: 293-Dual hSTING-R232
THP1-Dual = experiment: Cytotoxicity against human THP1-Dual cells assessed as cell viability measured after 24 hrs by CCK8 assay; assay type: functional, cell-based
[24] = Metabolic stability in mouse liver microsomes assessed as half life; assay type: ADME, Microsome
[25] = molecular target: T1, Stimulator of interferon genes protein (Mus musculus); experiment: Inhibition of STING in mouse […] ISG cells assessed as reduction in MSA-2-induced secreted luciferase reporter of interferon stimulated gene (ISG) measured after 24 hrs incubation; assay type: cell-based; conditions: RAW-Lucia ISG
[26] = Metabolic stability in rat liver microsomes assessed as microsomal intrinsic clearance; assay type: ADME, Microsome; conditions: read-out: CLH
[27] = molecular target: Stimulator of interferon genes protein (Homo sapiens) (UniProt Q86WV6); experiment: Inhibition of STING downstream signalling in human THP1-Dual cells assessed as inhibition of HT-DNA induced TNF-alpha mRNA expression at 0.3 to 3 uM pre-treated for 1 hr followed by stimulated with HT-DNA measured after 4 hrs by real-time PCR analysis; assay type: cell-based; conditions: dose 0.3-3 µM, time 5.0 hrs

inhibition [2]: Active
AUC(0-inf) [4]: 196 ng·h/mL
clearance [5]: 88.1 mL/min/kg
inhibition [7]: Dose-dependent-effect
inhibition [8]: Dose-dependent-effect
Activity [13]: inactive
microsomal CLint [14]: 52 µL/min/mg
inhibition [15]: Active
inhibition [16]: Dose-dependent-effect
inhibition [17]: Active
inhibition [18]: Dose-dependent-effect
inhibition [21]: Active
inhibition [23]: Active
half-life [24]: 26.7 min
inhibition [25]: Dose-dependent-effect
microsomal CLint [26]: 36 µL/min/mg
inhibition [27]: Active
Compound: N#CC/C=C/c1ccc2[nH]cc(NC(=O)Nc3ccc4c(c3)OC(F)(F)O4)c2c1
Activity (Mus musculus [1]): inactive
Activity (Mus musculus [3]): Active
Activity (Mus musculus [6]): Non-toxic
Activity (Mus musculus [9]): inactive
Activity (Mus musculus [10]): Active
inhibition (Mus musculus [11]): Active
Activity (Mus musculus [12]): Active
Activity (Mus musculus [19]): Active
Activity (Mus musculus [20]): inactive
inhibition (Mus musculus [22]): Active
inhibition (THP1-Dual): inactive
